In ChEMBL document CHEMBL5442175, “EUbOPEN Chemogenomics Library - PDSP Secondary Binding” (2024):
Structures can show the parent of a compound that is named as a salt.

Assays:
[1] = target: T1, Alpha-1D adrenergic receptor (Homo sapiens, UniProt P25100); assay: (§1) PDSP Secondary Binding target: ADRA1D - Compounds are tested at 10 uM concentration, plate are incubated at room temperature in the dark for 90 minutes. Reaction are stopped by vacuum filtration onto 0.3% polyethyleneimine soaked filter mats using Filtermate harvester. Scintillation cocktail is then melted onto microwave-dried filters on a hot plate and the radio activity is counted in Microbia counter.
T1 sequence (P25100 whole entry): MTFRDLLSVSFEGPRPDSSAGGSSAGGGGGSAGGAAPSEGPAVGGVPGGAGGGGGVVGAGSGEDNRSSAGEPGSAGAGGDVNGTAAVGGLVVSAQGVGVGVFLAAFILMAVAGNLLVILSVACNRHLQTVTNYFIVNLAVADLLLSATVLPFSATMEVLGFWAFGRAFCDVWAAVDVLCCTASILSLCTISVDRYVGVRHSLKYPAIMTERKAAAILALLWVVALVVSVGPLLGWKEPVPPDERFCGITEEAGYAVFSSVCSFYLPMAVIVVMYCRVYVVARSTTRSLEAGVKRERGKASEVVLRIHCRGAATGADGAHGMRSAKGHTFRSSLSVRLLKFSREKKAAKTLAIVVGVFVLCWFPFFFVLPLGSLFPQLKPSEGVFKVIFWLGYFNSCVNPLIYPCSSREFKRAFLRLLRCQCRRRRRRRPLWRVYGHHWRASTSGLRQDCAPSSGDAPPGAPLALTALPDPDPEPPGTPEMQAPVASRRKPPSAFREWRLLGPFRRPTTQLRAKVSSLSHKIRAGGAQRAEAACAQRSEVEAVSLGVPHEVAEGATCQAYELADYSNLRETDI

[2] = target: T2, Alpha-1B adrenergic receptor (Homo sapiens, UniProt P35368); assay: as §1, with “ADRA1B” for “ADRA1D”
T2 sequence (P35368 whole entry): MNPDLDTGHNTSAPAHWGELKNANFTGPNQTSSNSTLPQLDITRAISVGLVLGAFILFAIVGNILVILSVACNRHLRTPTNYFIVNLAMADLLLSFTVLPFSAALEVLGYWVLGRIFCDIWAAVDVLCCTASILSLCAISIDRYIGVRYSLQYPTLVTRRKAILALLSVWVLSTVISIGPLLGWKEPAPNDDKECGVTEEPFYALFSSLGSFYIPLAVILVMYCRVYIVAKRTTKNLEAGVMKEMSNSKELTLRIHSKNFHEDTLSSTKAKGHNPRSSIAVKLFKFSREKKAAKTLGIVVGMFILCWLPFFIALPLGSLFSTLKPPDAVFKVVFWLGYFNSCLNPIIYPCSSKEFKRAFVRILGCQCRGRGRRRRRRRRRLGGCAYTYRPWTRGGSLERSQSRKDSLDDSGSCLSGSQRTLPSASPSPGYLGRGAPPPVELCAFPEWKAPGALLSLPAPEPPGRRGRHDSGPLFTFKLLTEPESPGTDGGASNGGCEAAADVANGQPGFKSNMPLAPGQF

[3] = target: T3, Alpha-2B adrenergic receptor (Homo sapiens, UniProt P18089); assay: as §1, with “ADRA2B” for “ADRA1D”
T3 sequence (P18089 whole entry): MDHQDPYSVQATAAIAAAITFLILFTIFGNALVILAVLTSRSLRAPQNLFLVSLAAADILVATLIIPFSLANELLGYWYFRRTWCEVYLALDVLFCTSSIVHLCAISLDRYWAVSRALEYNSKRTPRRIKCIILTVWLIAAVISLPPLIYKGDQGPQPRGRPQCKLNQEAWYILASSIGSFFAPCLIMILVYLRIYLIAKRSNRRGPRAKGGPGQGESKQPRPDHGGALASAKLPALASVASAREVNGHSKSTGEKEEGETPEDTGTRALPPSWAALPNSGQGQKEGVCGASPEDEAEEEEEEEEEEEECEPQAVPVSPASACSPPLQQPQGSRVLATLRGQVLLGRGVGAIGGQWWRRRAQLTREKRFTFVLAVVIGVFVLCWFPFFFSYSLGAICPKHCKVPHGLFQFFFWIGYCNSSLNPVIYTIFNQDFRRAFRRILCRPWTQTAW

[4] = target: T4, Alpha-2A adrenergic receptor (Homo sapiens, UniProt P08913); assay: as §1, with “ADRA2A” for “ADRA1D”
T4 sequence (P08913 whole entry): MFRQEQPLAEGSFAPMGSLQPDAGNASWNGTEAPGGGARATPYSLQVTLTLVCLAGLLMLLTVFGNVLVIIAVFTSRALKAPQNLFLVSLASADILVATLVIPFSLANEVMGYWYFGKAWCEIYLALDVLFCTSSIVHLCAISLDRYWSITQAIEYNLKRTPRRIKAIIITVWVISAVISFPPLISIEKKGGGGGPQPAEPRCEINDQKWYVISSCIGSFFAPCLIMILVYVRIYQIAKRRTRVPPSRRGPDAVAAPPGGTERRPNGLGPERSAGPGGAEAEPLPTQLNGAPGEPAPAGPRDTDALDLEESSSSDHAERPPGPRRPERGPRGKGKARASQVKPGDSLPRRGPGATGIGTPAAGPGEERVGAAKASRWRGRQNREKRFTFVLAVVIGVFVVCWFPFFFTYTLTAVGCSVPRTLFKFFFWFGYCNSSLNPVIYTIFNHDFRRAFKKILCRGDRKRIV

[5] = target: 5-hydroxytryptamine receptor 6 (Homo sapiens, UniProt P50406); assay: as §1, with “HTR6” for “ADRA1D”
[6] = target: T5, Alpha-1A adrenergic receptor (Homo sapiens, UniProt P35348); assay: as §1, with “ADRA1A” for “ADRA1D”
T5 sequence (P35348 whole entry): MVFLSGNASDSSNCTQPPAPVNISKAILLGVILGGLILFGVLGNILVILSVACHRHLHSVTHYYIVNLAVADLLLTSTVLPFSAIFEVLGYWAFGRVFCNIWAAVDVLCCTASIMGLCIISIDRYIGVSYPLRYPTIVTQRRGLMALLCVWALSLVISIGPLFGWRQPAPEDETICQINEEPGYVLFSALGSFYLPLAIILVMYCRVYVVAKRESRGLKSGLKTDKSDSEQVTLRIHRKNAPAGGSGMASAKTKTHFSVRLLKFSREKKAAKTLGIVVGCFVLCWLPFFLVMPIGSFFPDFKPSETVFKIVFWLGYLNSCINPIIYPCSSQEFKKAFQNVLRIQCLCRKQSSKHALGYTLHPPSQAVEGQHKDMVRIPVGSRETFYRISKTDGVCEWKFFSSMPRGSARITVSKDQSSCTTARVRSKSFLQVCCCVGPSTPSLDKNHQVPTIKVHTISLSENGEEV

Chain of 5-hydroxytryptamine receptor 6 (P50406 whole entry): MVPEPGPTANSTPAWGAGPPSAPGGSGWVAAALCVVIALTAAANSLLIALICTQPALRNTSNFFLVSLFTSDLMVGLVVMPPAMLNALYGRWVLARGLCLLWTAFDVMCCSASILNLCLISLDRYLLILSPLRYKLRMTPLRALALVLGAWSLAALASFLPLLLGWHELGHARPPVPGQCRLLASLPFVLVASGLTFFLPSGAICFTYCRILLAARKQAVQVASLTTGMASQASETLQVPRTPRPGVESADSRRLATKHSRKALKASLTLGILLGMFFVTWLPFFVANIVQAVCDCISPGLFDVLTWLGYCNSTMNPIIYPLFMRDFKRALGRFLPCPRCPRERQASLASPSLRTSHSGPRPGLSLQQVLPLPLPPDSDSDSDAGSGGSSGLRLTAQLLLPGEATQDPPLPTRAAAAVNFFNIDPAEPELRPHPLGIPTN

Compound | Ki [1] [nM] | Ki [2] [nM] | Ki [3] [nM] | Ki [4] [nM] | Ki [5] [nM] | Ki [6] [nM]
CN(C)C(=O)N[C@H]1CC[C@H](CCN2CCN(c3cccc(Cl)c3Cl)CC2)CC1 [CARIPRAZINE HYDROCHLORIDE] | 323 | 1970 | 1090 | 1740 | 1300 | –
Cc1nc(-c2ccc(-c3ccc(C(=O)N4CCc5cc6c(cc54)C4(CCN(C)CC4)CO6)cc3)c(C)c2)no1 [SB-224289] | 2110 | – | 2170 | 2430 | – | –
CN1CCN(c2ccc(Nc3c4ccccc4nc4ccccc34)cc2)CC1 | 1750 | 2720 | – | – | 378 | 1580
CCCCCNC(=N)N/N=C/c1c[nH]c2ccc(OC)cc12 [TEGASEROD MALEATE] | 1640 | 2610 | 2840 | – | 566 | 1630
Cc1ccc2c(c1)c1c(n2CCc2ccc(C)nc2)CCN(C)C1 [LATREPIRDINE] | 767 | 1310 | 45.8 | 729 | 144 | 414
Cc1nc2sccn2c(=O)c1CCN1CCC(=C(c2ccc(F)cc2)c2ccc(F)cc2)CC1 [RITANSERIN] | – | 598 | 655 | 367 | 287 | 172
S=C(NCCCc1c[nH]cn1)NCCCN(Cc1ccc(Cl)c(Cl)c1)c1ccc(Br)cn1 | 1700 | 2030 | 512 | 178 | 1330 | 513
CCc1nn(CCCN2CCN(c3cccc(Cl)c3)CC2)c(=O)n1CCOc1ccccc1 [NEFAZODONE HYDROCHLORIDE] | 445 | 572 | 192 | – | 1110 | 137
OCc1cc(C(O)CNCCCCCCOCCCCc2ccccc2)ccc1O (configuration not stated) [SALMETEROL] | 963 | – | 1940 | > 10000 | – | 549
O=S1(=O)c2cccc3cccc(c23)N1CCCN1CCN(c2ccc(F)cc2)CC1 [FANANSERIN] | – | 847 | 667 | 2020 | 5110 | 195
O=c1ccc2ccc(OCCCCN3CCN(c4cccc5sccc45)CC3)cc2[nH]1 [BREXPIPRAZOLE] | 76.4 | 57.9 | 191 | 212 | 308 | 29.3
COc1cc(-n2cnc3cc(-c4ccc(Cl)cc4)sc3c2=O)ccc1OCCN1CCCC1 | 6050 | – | – | 2940 | – | –
CN1C[C@H](C(=O)N[C@]2(C)O[C@@]3(O)[C@@H]4CCCN4C(=O)[C@H](Cc4ccccc4)N3C2=O)C[C@@H]2c3cccc4[nH]cc(c34)C[C@H]21 [DIHYDROERGOTAMINE MESYLATE] | – | 119 | – | – | 225 | 32.9
COc1ccc(NC(=O)c2ccc(-c3ccc(-c4noc(C)n4)cc3C)cc2)cc1OCCN(C)C | – | – | 667 | 440 | – | –
Cc1c(P(=S)(c2ccccc2)c2ccccc2)n2ccccc2[n+]1C/C=C/c1ccccc1 | – | – | – | 568 | – | –
CCc1ccc(OCc2ccccc2C(=O)Nc2ccc3nc(C)cc(N)c3c2)cc1 | 2080 | 3540 | 3140 | – | – | –
COC(=O)C1=C(C)NC(C)=C(C(=O)OCCCN2CCC(c3ccccc3)(c3ccccc3)CC2)[C@H]1c1cccc([N+](=O)[O-])c1 [NIGULDIPINE] | – | – | – | – | 878 | –
CN1CCCC(n2nc(Cc3ccc(Cl)cc3)c3ccccc3c2=O)CC1 (configuration not stated) [AZELASTINE HYDROCHLORIDE] | 333 | 3640 | 230 | 1450 | 2090 | 496
C[C@H](Cc1cc2c(c(C(N)=O)c1)N(CCCO)CC2)NCCOc1ccccc1OCC(F)(F)F [SILODOSIN] | 47.3 | 196 | 786 | 683 | – | 30.3
N#Cc1ccc2[nH]cc(CCCCN3CCN(c4ccc5oc(C(N)=O)cc5c4)CC3)c2c1 [VILAZODONE HYDROCHLORIDE] | 716 | 2900 | – | 2490 | 960 | 278
